# Data: patent publication US20060167086A1, “Medicinal composition” (priority 2003, published 2006)
# How the values were obtained:
# [1] = tested on: multiple myeloma cells line KMS-12-PE; experiment: Antitumor effect in myeloma model mice; assay type: in vivo, CB17/lcr-SCID mice; details: 8 mg/kg BW intraperitoneally every day for 14 days; FIG. 5
# Description: Next, the antitumor effect of (−)-DHM2EQ on multiple myeloma was investigated. The multiple myeloma cells line KMS-12-PE (Ohtsuki T. et al., Br. J. Hematol. 73, 199-204, 1989) (4×10^7 cells) was dissolved in 0.2 ml of PBS and injected subcutaneously into the left back of CB17/lcr-SCID mice to form tumors. Pieces of these tumors (5 mm^3) were implanted in 10 mice. […] Subsequently, a solution of (−)-DHM2EQ (RPMI1640 medium) was administered intraperitoneally to 5 mice at 8 mg/kg BW every day for 14 days ((−)-DHM2EQ). Another five mice in the control group were given an equal amount of solvent (Control). The diameters of tumors were measured twice a week (Tumor volume=(minor axis)^2×(major axis)×0.52).
# [2] = tested on: Undifferentiated human thyroid cancer cell FRO; experiment: Antitumor effect in thyroid cancer model mice; assay type: in vivo, BALB/cnu/nu male mice; details: 10 mg/kg BW intraperitoneally every day for 10 days; FIG. 6
# Description: The antitumor effect of (−)-DHM2EQ on human thyroid cancer was investigated. Undifferentiated human thyroid cancer cell suspension FRO (5×10^6 cells; 1200 μl of RPMI-1640) was injected subcutaneously into the flank of 8-week-old BALB/cnu/nu male mice (Charles River, Japan). Subsequently, tumor sizes were measured with calipers every other day, and tumor volume was calculated by formula (a; minor axis of tumor)^2×(b: perpendicular diameter to a)×0.4).
# [3] = tested on: hypertrophic fat cells (from precursor fat cell line 3T3-L1); experiment: Apoptosis induction (TUNEL) in hypertrophic fat cells; assay type: cell-based
# Description: It is considered that diseases involving insulin resistance result from TNF-α secreted from hypertrophic fat cells, as mentioned above. Thus, to examine whether (−)-DHM2EQ can induce apoptosis of hypertrophic fat cells, the influence of (−)-DHM2EQ on the hypertrophic fat cells obtained by inducing differentiation of precursor fat cells in long-term culture was investigated. The precursor fat cell line 3T3-L1 (7.5×10^4 cells; 1 ml of DMEM+10% FBS) was plated on coverslips in 12-well plates. A few days after the cells reached confluency, the cell medium was changed to a medium containing 500 μM of 3-isobutyl-1-methylxanthine (IBMX), 1 μM of dexamethasone (Dex), and a medium containing 1 μg/ml of insulin. After culture for 3 days, this medium was changed to a media containing 1 μg/ml insulin, which was cultured for another 3 days, followed by replacement with a normal medium (DMEM containing 10% FBS). Thereafter, medium change was performed every three days continuously till day 50.
# On day 50 after differentiation induction, medium change was performed. […] After another 24 h, the medium was removed and hypertrophy fat cells were washed 3 times with 500 μl of PBS (8 g/l NaCl, 0.45 g/l NaH2PO4.2H2O, 1.28 g/l Na2HPO4) for fluorescent antibodies and fixed for 15 min at 4° C. in 500 μl of 4% paraformaldehyde. Subsequently, cells were washed three times with 500 μl of PBS for fluorescent antibodies and treated for 15 min with 0.2% BSA and 0.5% Tween-20 in PBS for fluorescent antibodies.
# Subsequently, the coverslips were washed three times with 500 μl of distilled water and then mounted on the paraffin sheet in 150-mm^2 shielded Petri dishes, cells facing upward. TUNEL solution (TdT buffer II/FITC-dUTP/TdT=45 μl/2.5 μl/2.5 μl) was dropped in 45-μl drops onto the coverslips, followed by incubation for 1 h at 37° C. Finally, the coverslips were returned to shielded 12-well plates and washed three times with 1 ml of PBS for fluorescent antibodies. Then the coverslips were removed, mounted on a slide in 50% glycerol, and observed under a fluorescence microscope.
# [4] = Body weight under high fat diet in obese type 2 diabetes model; assay type: in vivo; details: supplemented to high fat diet, 4 weeks, KKA^y female mice; FIG. 8
# Description: Four-week-old KKA^y female mice were divided into two groups: the (−)-DHM2EQ group (n=5) and the control group (n 4). A high fat diet (CRF-1; Oriental Yeast Co.) as a basal chow diet was fed ad libitum for 4 weeks to the non-supplemented group (∘: without (−)-DHM2EQ) and the (−)-DHM2EQ-administered group (●: with (−)-DHM2EQ). Body weights of animals were measured weekly. The (−)-DHM2EQ given to mice was ground to fine powder in a mortar, suspended or dissolved in a 5% CMC solution, and supplemented to the high fat diet.
# C2C12 myoblast cell line = experiment: Relief of TNF-α inhibition of differentiation from myoblasts to muscle cells; assay type: cell-based, mouse; details: 6 days
# Description: Thus, the inventors investigated whether addition of (−)-DHM2EQ can relieve the inhibitory responses to muscle differentiation by TNF-α, using a differentiation induction system of the C2C12 myoblast cell line. Using DMEM (culture medium) containing 10% FBS a mouse skeletal myogenic cell line, C2C12 (purchased from the RIKEN cell bank) was prepared at 7.5×10^4 cells/ml. Cells were seeded in plastic 12-well plates on coverslips (1 ml/well; Matsunami Glass Ind., Ltd., Osaka, Japan). Subsequently, when cells had grown to confluence, the medium was changed to DMEM (differentiation medium) containing 0.5% heat-inactivated horse serum. Cells to be subjected to the effect of TNF-α (1 ng/ml) and/or (−)-DHMEQ (3 μg/(ml)) were supplemented with each agent at this point. After 6 days, on confirmation of the formation of multinucleated myotubes, a marker of muscle cell differentiation, the medium was removed. The control was prepared by culturing cells in a culture medium at a density such that confluency was reached exactly on day 6.
# These cells were washed twice with PBS^− (Ca^2+, Mg^2+-free PBS; 8.0 g/l NaCl, 0.2 g/l KCl, 2.3 g/l NaHPO4.12H2O, 0.2 g/l KH2PO4). […]
# Samples thus prepared were mounted on a slide and photographed at 400× magnification with a fluorescence microscope (Nikon UFX-DX; set with a 40× phase contrast objective, Ph2). […]
# NF-κB [5] = experiment: Inhibition of NF-κB activity; assay type: cell-based
# [6] = Type II collagen-induced rheumatoid arthritis model mice; assay type: in vivo; details: administration to model mice of type II collagen-induced rheumatoid arthritis
# [7] = tested on: Hodgkin's-lymphoma cells in which NF-κB is activated; experiment: Proliferation of Hodgkin's-lymphoma cells; assay type: cell-based
# [8] = tested on: myelocytic leukemia cells in which NF-κB is not activated; experiment: Proliferation of myelocytic leukemia cells; assay type: cell-based
# [9] = tested on: human breast cancer cells; experiment: Proliferation of human breast cancer cells in vitro and in vivo; assay type: cell-based; details: in a manner not depending on apoptosis
# [10] = tested on: leukemia cells in which NF-κB is activated; experiment: Apoptosis of leukemia cells; assay type: cell-based
# human normal leukocytes = experiment: Apoptosis of human normal leukocytes; assay type: cell-based; details: same concentration as that used in inducing apoptosis of leukemia cells
# NF-κB [11] = experiment: NF-κB activation in ATL cells; assay type: cell-based
# [12] = tested on: adult T cell leukemia/lymphoma (ATL) cells; experiment: Proliferation of ATL cells; assay type: cell-based
# normal cells [13] = experiment: Proliferation of normal cells; assay type: cell-based
# [14] = tested on: adult T cell leukemia/lymphoma (ATL) cells; experiment: Apoptosis of ATL cells; assay type: cell-based
# normal cells [15] = experiment: Apoptosis of normal cells; assay type: cell-based
# [16] = Model mice with induced cachexic symptoms; assay type: in vivo; details: administered to model mice with induced cachexic symptoms
# [17] = Combination with oncotherapy that activates NF-κB; details: used in combination
# NF-κB [18] = details: J. Biol. Chem. 277, 24625-24630, 2002; cited from earlier work
# [19] = Bioorg. Med. Chem. Lett. 10, 865-869, 2000; cited from earlier work
# prostatic cancer = details: Cancer Res. 2003; 63(1):107-10; cited from earlier work
# breast cancer = details: Annual Meeting of the Japanese Cancer Association, 2002; cited from earlier work
# [20] = background statement; cited from earlier work
compound,measurement,setting,value
O=C(NC1=CC(=O)[C@H]2O[C@H]2[C@H]1O)c1ccccc1O [(−)-DHM2EQ],tumor growth (tumor volume) compared with the control,[1],significantly suppresses tumor growth
same,tumor growth (tumor volume) compared with the control,[2],significantly inhibits tumor growth
same,apoptosis of hypertrophic fat cells,"[3]; 10 μg/ml (−)-DHM2EQ alone, without TNF-α",did not induce apoptosis
same,apoptosis of hypertrophic fat cells,"[3]; pretreated with 10 mg/ml (−)-DHM2EQ, then stimulation with 10 ng/ml TNF-α, TUNEL, FIG. 7",induces apoptosis
same,body weight under high fat diet load,[4],suppression of body weight
same,inhibition by TNF-α of differentiation induction from myoblasts to muscle cells,"C2C12 myoblast cell line; 1 to 3 μg/ml (−)-DHM2EQ with 1 ng/ml TNF-α, FIG. 9",relieves the inhibition of the differentiation induction
same,inhibitory effect on the NF-kappa B activity relative to (±)-DHM2EQ,NF-κB [5],several to ten or more times stronger
TNF-α [reference compound],apoptosis of hypertrophic fat cells,[3]; 10 ng/ml TNF-α alone,did not induce apoptosis
same,differentiation induction from myoblasts to muscle cells,C2C12 myoblast cell line; 1 ng/ml TNF-α,suppressed differentiation induction
"O=C(NC1=CC(=O)C2OC2C1O)c1ccccc1O (racemic) [(±)-DHM2EQ, 5,6-epoxy-4-hydroxy-3-salicyloylamino-2-cyclohexenone]",arthritic symptoms,[6],efficacy of (±)-DHM2EQ in suppression of arthritic symptoms
same,proliferation of Hodgkin's-lymphoma cells,[7],inhibits proliferation
same,proliferation of myelocytic leukemia cells,[8],does not inhibit proliferation
same,proliferation of human breast cancer cells,[9],suppresses proliferation
same,apoptosis of leukemia cells,[10],induces apoptosis
same,apoptosis of human normal leukocytes,human normal leukocytes,does not in the least induce apoptosis
same,NF-κB activation in ATL cells,NF-κB [11],inhibits NF-κB activation
same,proliferation of ATL cells,[12],specifically capable of inhibiting proliferation
same,proliferation of normal cells,normal cells [13],does not inhibit proliferation
same,apoptosis of ATL cells,[14],capable of inducing apoptosis
same,apoptosis of normal cells,normal cells [15],does not induce apoptosis
same,cachexic symptoms,[16],efficacy of (±)-DHM2EQ in prevention/improvement of cachexic symptoms
same,"effect of oncotherapy that activates NF-κB (chemotherapy, radiotherapy)",[17],enhances the effect
same,NF-κB inhibition on a cellular level,NF-κB [18],inhibits NF-κB strongly
same,symptoms in a model mouse of rheumatism,[19],suppresses symptoms
same,growth of prostatic cancer on an organism level,prostatic cancer,strongly suppresses the growth
same,growth of breast cancer on an organism level,breast cancer,strongly suppresses the growth
same,toxicity,[20],low toxicity
